# Biological target: T1, αγ heterodimer of human NAD-IDH (IDH3) (Homo sapiens, UniProt P50213+P51553)
# T1 construct: gene IDH3A; alpha and gamma co-expressed in E. coli BL21(DE3) from pQlinkN; gamma C-terminal TEV-His6, His6 cleaved by TEV; 80 kDa heterodimer (dimer of heterodimers at high concentration)
# T1 sequence (P50213 28-366): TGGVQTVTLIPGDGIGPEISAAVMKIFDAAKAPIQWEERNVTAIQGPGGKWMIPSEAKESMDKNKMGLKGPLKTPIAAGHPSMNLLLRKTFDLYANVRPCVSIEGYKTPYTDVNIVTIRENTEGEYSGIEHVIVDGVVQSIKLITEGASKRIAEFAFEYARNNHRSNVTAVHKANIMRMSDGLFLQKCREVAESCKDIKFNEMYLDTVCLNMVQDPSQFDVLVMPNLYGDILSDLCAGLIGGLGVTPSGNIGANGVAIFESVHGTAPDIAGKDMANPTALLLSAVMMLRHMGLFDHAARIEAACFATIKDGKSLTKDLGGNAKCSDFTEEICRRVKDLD
# T1 sequence (P51553 40-393): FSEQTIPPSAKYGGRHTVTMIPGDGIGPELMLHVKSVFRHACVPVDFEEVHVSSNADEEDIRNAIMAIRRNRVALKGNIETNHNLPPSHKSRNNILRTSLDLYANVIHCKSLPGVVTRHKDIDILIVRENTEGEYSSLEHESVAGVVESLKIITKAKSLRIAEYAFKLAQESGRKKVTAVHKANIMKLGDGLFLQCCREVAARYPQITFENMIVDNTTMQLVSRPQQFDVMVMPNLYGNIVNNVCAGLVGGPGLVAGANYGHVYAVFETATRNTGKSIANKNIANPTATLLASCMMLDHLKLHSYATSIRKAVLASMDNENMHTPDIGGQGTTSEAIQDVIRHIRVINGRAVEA
# Experiment: crystal structure, […] Å
# Format: binding
# Details: allosteric citrate subsite in gamma subunit (second site), with Mg2+ and ADP; pH 7.5
smiles,measurement,value
O=C(O)C[C@H](C(=O)O)[C@@H](O)C(=O)O [ICT],"crystal structure, 2.8 Å","In this structure, ICT binds to the CIT-binding subsite with a similar orientation as CIT"

# From PMC5241874
